Measurements published in patent US20230321123A1, “INHIBITORS OF PSEUDOMONAS AERUGINOSA VIRULENCE FACTOR LasB” (Helmholtz-Zentrum Für Infektionsforschung GmbH, priority 2020, published 2023).
Read-outs that look alike come from different tables or passages of the source. Each block holds one molecule with its values, some of them ahead of it.

Assays:
[1] = target: T1, MMP-2 (Homo sapiens, UniProt P08253); test: Selectivity against human off-targets: MMP-2; format: biochemical; details: at 100 μM; read-out: Inhibition [%] MMP-2
T1 sequence (P08253 110-660): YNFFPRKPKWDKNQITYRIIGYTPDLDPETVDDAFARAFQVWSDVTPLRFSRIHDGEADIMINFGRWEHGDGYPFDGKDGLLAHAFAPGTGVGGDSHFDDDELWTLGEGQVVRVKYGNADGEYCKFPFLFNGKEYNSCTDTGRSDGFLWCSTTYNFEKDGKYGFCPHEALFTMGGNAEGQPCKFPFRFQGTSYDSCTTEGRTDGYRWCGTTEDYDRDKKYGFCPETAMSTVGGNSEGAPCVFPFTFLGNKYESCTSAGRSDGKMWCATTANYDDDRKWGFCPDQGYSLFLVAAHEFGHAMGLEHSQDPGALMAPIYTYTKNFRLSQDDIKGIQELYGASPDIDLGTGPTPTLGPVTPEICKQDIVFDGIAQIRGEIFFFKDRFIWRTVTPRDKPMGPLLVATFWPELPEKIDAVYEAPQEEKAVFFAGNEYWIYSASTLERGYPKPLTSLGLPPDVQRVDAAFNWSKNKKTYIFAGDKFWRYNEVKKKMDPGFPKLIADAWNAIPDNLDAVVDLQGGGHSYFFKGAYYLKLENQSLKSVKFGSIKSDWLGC
From the text: (§1) The inhibition of zinc-containing human enzymes is described frequently for LasB inhibitors and poses a serious difficulty in the development of selective compounds. Particularly, the inhibition of matrix metalloproteases (MMPs) should be avoided. To further investigate this issue, three derivatives (the compounds of examples 1, 5 and 8) have been tested for their selectivity against several human off-targets, including six MMPs, ADAM17 (TACE), HDAC-3 and HDAC-8 (Table 4). The selectivity of the compounds is particularly high for MMPs and HDACs, whereas the inhibition of ADAM17 was considerably stronger.

[2] = target: MMP-3 (Homo sapiens, UniProt P08254); test: Selectivity against human off-targets: MMP-3; format: biochemical; details: at 100 μM; read-out: Inhibition [%] MMP-3
Sequence of MMP-3 (P08254 100-477): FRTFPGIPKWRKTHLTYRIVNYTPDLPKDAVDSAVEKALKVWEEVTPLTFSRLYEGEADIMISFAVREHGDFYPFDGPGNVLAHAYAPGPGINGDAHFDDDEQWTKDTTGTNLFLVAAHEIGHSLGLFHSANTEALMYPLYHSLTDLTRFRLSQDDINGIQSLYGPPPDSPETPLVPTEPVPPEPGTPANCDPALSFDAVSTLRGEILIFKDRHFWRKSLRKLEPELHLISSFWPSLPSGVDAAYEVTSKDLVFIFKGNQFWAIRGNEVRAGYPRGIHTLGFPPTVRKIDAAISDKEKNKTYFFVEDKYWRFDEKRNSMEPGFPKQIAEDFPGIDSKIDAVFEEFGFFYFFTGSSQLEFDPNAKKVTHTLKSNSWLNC
From the text: as §1

[3] = target: T2, MMP-1 (Homo sapiens, UniProt P03956); test: Selectivity against human off-targets: MMP-1; format: biochemical; details: at 100 μM; read-out: Inhibition [%] MMP-1
T2 sequence (P03956 100-469): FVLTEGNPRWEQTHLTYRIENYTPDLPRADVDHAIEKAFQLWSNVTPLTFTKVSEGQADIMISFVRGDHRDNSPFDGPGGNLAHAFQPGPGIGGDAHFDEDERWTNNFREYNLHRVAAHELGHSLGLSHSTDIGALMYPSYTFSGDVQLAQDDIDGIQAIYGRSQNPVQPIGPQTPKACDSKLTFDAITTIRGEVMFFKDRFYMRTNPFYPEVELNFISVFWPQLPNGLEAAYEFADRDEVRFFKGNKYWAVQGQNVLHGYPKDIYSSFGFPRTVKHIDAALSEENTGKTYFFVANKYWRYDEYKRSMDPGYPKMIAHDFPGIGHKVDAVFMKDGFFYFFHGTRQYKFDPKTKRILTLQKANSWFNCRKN
From the text: as §1

[4] = Cytotoxicity A549; format: cell-based; details: human
Procedure: (§2) The compounds of examples 1 and 5 were not toxic against the cell lines HepG2, HEK293 and A549 (Table 5). Additionally, the inhibitory effect against P. aeruginosa PA14 was evaluated to exclude an antibacterial effect of the compounds of the present invention. This is important as it was the aim to target virulence and not viability of the bacteria. […]

[5] = Cytotoxicity HEK293; format: cell-based; details: human
Procedure: as §2

[6] = Cytotoxicity HepG2; format: cell-based; details: human
Procedure: as §2

[7] = tested on: P. aeruginosa PA14; test: PA14 inhibition (MIC, antibacterial effect); format: cell-based; details: Pseudomonas aeruginosa, PA14; read-out: MIC PA14
Procedure: as §2

[8] = target: T3, HDAC-8 (Homo sapiens, UniProt Q9BY41); test: Selectivity against human off-targets: HDAC-8; format: biochemical; details: read-out: IC50 HDAC-8
T3 sequence (Q9BY41 1-377): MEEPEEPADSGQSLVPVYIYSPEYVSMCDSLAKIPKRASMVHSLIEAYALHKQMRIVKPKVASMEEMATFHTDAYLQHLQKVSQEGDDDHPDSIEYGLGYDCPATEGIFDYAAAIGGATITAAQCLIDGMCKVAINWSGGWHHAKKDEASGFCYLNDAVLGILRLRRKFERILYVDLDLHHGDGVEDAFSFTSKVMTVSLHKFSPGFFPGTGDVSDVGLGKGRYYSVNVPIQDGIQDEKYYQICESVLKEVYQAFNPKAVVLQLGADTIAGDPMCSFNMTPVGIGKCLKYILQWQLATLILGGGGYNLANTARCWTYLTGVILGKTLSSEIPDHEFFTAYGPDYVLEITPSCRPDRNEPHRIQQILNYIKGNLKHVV
From the text: as §1

[9] = target: HDAC-3 (Homo sapiens, UniProt O15379); test: Selectivity against human off-targets: HDAC-3; format: biochemical; details: read-out: IC50 HDAC-3
Sequence of HDAC-3 (O15379 whole entry): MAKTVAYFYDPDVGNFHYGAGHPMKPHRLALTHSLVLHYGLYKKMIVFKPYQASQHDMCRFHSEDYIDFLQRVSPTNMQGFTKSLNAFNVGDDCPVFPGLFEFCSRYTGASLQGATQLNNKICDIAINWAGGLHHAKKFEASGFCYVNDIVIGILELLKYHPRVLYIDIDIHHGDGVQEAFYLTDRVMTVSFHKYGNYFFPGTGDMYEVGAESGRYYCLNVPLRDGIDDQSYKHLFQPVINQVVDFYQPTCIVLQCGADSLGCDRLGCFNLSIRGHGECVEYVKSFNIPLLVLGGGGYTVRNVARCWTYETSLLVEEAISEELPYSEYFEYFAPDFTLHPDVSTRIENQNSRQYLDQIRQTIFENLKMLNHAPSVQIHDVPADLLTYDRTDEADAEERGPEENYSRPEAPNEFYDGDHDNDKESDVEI
Sequence of HDAC-3 (Q9Y618 395-489 partner limits assumed): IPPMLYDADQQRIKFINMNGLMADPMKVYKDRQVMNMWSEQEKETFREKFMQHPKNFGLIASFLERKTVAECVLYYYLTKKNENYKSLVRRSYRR
From the text: as §1

[10] = target: ADAM17 (TACE) (Homo sapiens, UniProt P78536); test: Selectivity against human off-targets: ADAM17 (TACE); format: biochemical; details: for IC50: read-out: IC50 ADAM17 (TACE)
Sequence of ADAM17 (TACE) (P78536 215-824): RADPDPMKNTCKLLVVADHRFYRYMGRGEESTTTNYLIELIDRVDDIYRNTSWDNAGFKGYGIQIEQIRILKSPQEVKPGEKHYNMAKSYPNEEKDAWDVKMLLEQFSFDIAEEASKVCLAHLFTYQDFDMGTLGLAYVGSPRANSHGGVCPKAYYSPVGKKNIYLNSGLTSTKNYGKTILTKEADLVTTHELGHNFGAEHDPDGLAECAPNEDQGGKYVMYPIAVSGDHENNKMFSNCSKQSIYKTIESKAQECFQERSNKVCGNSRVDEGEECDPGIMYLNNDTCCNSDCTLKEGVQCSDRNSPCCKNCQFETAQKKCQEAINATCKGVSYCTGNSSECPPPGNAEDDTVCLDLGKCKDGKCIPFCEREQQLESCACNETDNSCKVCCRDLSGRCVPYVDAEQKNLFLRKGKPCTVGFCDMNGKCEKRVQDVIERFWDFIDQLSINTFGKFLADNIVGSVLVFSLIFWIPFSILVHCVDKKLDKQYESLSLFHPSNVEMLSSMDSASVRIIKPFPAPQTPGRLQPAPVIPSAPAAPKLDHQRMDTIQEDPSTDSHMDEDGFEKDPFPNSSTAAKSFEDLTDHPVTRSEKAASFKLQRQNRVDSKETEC

[11] = target: LasB (Pseudomonas aeruginosa, UniProt Q02RJ6); test: biochemical; design: species or system P. aeruginosa
Sequence of LasB (Q02RJ6 198-498): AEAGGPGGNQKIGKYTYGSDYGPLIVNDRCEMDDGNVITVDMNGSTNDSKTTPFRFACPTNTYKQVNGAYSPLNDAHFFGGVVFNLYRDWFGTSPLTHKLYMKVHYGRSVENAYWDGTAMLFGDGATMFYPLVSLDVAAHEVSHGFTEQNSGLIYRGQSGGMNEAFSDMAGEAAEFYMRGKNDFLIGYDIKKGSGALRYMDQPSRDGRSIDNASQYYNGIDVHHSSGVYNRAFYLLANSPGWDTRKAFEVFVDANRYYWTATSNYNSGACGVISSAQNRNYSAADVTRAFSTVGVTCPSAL

[12] = target: MMP-8 (Homo sapiens, UniProt P22894); test: Selectivity against human off-targets: MMP-8; format: biochemical; details: at 100 μM; read-out: Inhibition [%] MMP-8
Sequence of MMP-8 (P22894 101-467): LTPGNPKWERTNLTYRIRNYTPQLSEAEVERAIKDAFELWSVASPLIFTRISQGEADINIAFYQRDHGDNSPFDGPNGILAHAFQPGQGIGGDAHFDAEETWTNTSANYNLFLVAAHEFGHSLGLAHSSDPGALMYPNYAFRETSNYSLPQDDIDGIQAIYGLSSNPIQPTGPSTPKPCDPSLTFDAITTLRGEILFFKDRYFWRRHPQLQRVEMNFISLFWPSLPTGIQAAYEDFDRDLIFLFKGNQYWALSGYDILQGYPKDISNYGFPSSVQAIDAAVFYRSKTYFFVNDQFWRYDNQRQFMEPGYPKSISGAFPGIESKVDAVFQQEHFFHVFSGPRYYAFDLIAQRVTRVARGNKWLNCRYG
From the text: as §1

inhibition at 100 µM [1]: < 10%
inhibition at 100 µM [2]: < 10%
inhibition at 100 µM [3]: 12 ± 1%
MIC [7]: > 100 µM
Structure (SMILES): CC(C)CC(C(=O)Nc1ccc(NS(=O)(=O)c2ccc(Cl)c(Cl)c2)cc1)P(=O)(O)O (centres unmarked) [Example 108, (1-((4-((3,4-Dichlorophenyl)sulfonamido)phenyl)amino)-4-methyl-1-oxopentan-2-yl)phosphonic acid]
IC50 ([4]; A549 cells): > 100 µM
IC50 ([5]; HEK293 cells): > 100 µM
IC50 ([6]; HepG2 cells): > 100 µM

Structure (SMILES): Cc1ccc(NC(=O)C(CC(C)C)n2nccn2)cc1 (centres unmarked) [Example 177, 4-Methyl-N-(p-tolyl)-2-(2H-1,2,3-triazol-2-yl)pentanamide]
inhibition at 100 µM [3]: 7 ± 4%
IC50 [8]: > 100 µM
IC50 ([4]; A549): > 100 µM
IC50 [9]: > 100 µM
IC50 [10]: > 100 µM
IC50 ([5]; HEK293): > 100 µM
IC50 ([6]; HepG2): > 100 µM
MIC [7]: > 100 µM
IC50 ([11]; IC50 against LasB): 5.3 ± 0.2 µM

Structure (SMILES): Cc1ccc(NC(=O)C(CC(C)C)C(=O)NO)cc1 (centres unmarked) [Example 173, N^1-hydroxy-2-isobutyl-N^3-(p-tolyl)malonamide]
inhibition at 100 µM [1]: 26 ± 2%
inhibition at 100 µM [2]: 16 ± 7%
inhibition at 100 µM [3]: 29 ± 3%
IC50 [8]: > 100 µM
IC50 ([4]; A549): > 100 µM
IC50 [9]: > 100 µM
IC50 [10]: 16 ± 2 µM
IC50 ([5]; HEK293): > 100 µM
IC50 ([6]; HepG2): > 100 µM
MIC [7]: > 100 µM
IC50 ([11]; IC50 against LasB): 0.014 ± 0.001 µM

Structure (SMILES): Cc1ccc(NC(=O)C(S)Cc2ccccc2)cc1 (centres unmarked) [Example 8]
IC50 [10]: 4.8 ± 1.2 µM
IC50 ([11]; read-out: IC50 against LasB): 0.48 ± 0.04 µM

Structure (SMILES): O=C(Nc1ccc(O)cc1)C(S)Cc1ccccc1 (centres unmarked) [Example 5]
inhibition at 100 µM [12]: 19 ± 4%
IC50 ([4]; A549): > 100 µM
IC50 [10]: 2.3 ± 1.4 µM
IC50 ([5]; HEK293): > 100 µM
IC50 ([6]; HepG2): > 100 µM
IC50 ([11]; IC50 against LasB): 0.59 ± 0.04 µM

Structure (SMILES): CC(C)CC(C(=O)N[C@H](c1nc2cc(Oc3ccccc3)ccc2[nH]1)C(C)C)P(=O)(O)O (mixture of isomers) [Example 172, (4-Methyl-1-(((S)-2-methyl-1-(5-phenoxy-1H-benzo[d]imidazol-2-yl)propyl)amino)-1-oxopentan-2-yl)phosphonic acid]
inhibition at 100 µM [1]: 12 ± 2%
inhibition at 100 µM [2]: 18 ± 5%
inhibition at 100 µM [3]: 18 ± 4%
IC50 ([4]; A549): > 100 µM
inhibition at 100 µM ([10]; at 100 μM): < 10%
IC50 ([5]; HEK293): > 100 µM
IC50 ([6]; HepG2): > 100 µM
MIC [7]: > 100 µM
IC50 ([11]; IC50 against LasB (Table 16), heteropentacycles and benzannulated heteropentacycles): 12 ± 1 µM

Structure (SMILES): CC(C)CC(C(=O)N[C@H](C(=O)Nc1ccc(Cl)c(Cl)c1)C(C)C)P(=O)(O)O (mixture of isomers) [Example 152, (1-(((S)-1-((3,4-Dichlorophenyl)amino)-3-methyl-1-oxobutan-2-yl)amino)-4-methyl-1-oxopentan-2-yl)phosphonic acid]
inhibition at 100 µM [1]: 7 ± 9%
inhibition at 100 µM [2]: < 10%
inhibition at 100 µM [3]: 13 ± 1%
IC50 ([4]; A549): > 100 µM
IC50 [10]: > 100 µM
IC50 ([5]; HEK293): > 100 µM
IC50 ([6]; HepG2): > 100 µM
MIC [7]: > 100 µM
IC50 ([11]; IC50 against LasB): 0.0051 ± 0.0002 µM

inhibition at 100 µM [1]: 18%
inhibition at 100 µM [2]: < 10%
inhibition at 100 µM [3]: < 10%
MIC [7]: > 100 µM
Structure (SMILES): CC(C)CC(C(=O)Nc1ccc(-c2ccc(Cl)cc2)nc1)P(=O)(O)O (centres unmarked) [Example 92]
IC50 ([4]; A549 cells): > 100 µM
IC50 ([5]; HEK293 cells): > 100 µM
IC50 ([6]; HepG2 cells): > 100 µM

Structure (SMILES): CC(C)CC(C(=O)Nc1ccc(S(=O)(=O)C(F)(F)F)cc1)P(=O)(O)O (centres unmarked) [Example 74]
IC50 ([11]; IC50 against LasB): 0.028 ± 0.006 µM

Structure (SMILES): CC(C)CC(C(=O)Nc1ccc(NC(=O)c2nc(Cl)cs2)cc1)P(=O)(O)O (centres unmarked) [Example 129]
IC50 ([11]; IC50 against LasB): 0.049 ± 0.002 µM

Structure (SMILES): CC(C)CC(C(=O)Nc1ccc(NC(=O)c2ccc(Cl)c(Cl)c2)cc1)P(=O)(O)O (centres unmarked) [Example 118]
IC50 ([11]; IC50 against LasB): 0.025 ± 0.001 µM

Structure (SMILES): CCC(S)C(=O)Nc1ccc(C(C)=O)cc1 (centres unmarked) [Example 20]
IC50 ([11]; IC50 against LasB): 10 ± 2 µM

Structure (SMILES): Cc1ccc(NC(=O)C(CC(C)C)n2ccnn2)cc1 (centres unmarked) [Example 174, 4-Methyl-N-(p-tolyl)-2-(1H-1,2,3-triazol-1-yl)pentanamide]
inhibition at 100 µM [2]: -3 ± 17%
IC50 [8]: > 100 µM
IC50 ([4]; A549): > 100 µM
IC50 [9]: > 100 µM
IC50 [10]: > 100 µM
IC50 ([5]; HEK293): > 100 µM
IC50 ([6]; HepG2): > 100 µM
MIC [7]: > 100 µM
IC50 ([11]; IC50 against LasB): 2.8 ± 0.1 µM

Structure (SMILES): CC(C)CC(C(=O)Nc1ccc(OCc2ccc(Cl)c(Cl)c2)cc1)n1nccn1 (centres unmarked) [Example 179]
IC50 ([11]; IC50 against LasB): 30 µM
